In ChEMBL document CHEMBL5696443 (Clin Cancer Res, 2016):
Activity calls are given as the source filed them. The rule behind the calls is not given here.

What was measured:
[1] = target: PAS domain-containing serine/threonine-protein kinase (Homo sapiens) (UniProt Q96RG2); assay: Inhibition of human PASK at 1 uM using KKLNRTLSFAEPG as substrate in presence of [gamma33P]-ATP by HotSpot assay relative to control
[2] = tested on: EML4-ALK (Homo sapiens), Q9UM73+Q9HC35 [F1174L]; conditions: BaF3, dose 500.0 nmol/L, time 3-5 weeks
Ephrin type-A receptor 7 = Ephrin type-A receptor 7 (Homo sapiens, UniProt Q15375); assay: Inhibition of human EPHA7 using poly (Glu, Tyr)4:1 as substrate in presence of [gamma33P]-ATP by HotSpot assay
[3] = target: Vascular endothelial growth factor receptor 1 (Homo sapiens) (UniProt P17948); assay: Inhibition of human FLT1 at 1 uM using poly (Glu, Tyr)4:1 as substrate in presence of [gamma33P]-ATP by HotSpot assay relative to control
[4] = target: Tyrosine-protein kinase Lck (Homo sapiens, UniProt P06239); assay: Inhibition of human LCK using poly (Glu, Tyr)4:1 as substrate in presence of [gamma33P]-ATP by HotSpot assay
[5] = target: Tyrosine-protein kinase TXK (Homo sapiens) (UniProt P42681); assay: Inhibition of human TXK at 1 uM using EAIYAAPFAKKK as substrate in presence of [gamma33P]-ATP by HotSpot assay relative to control
[6] = target: Cyclin-dependent kinase 4/cyclin D1 (Homo sapiens) (UniProt P11802+P24385); assay: Inhibition of human CDK4/CyclinD1 at 1 uM using RB protein as substrate in presence of [gamma33P]-ATP by HotSpot assay relative to control; assay type: protein-complex assay
[7] = target: Tyrosine-protein kinase ABL2 (Homo sapiens) (UniProt P42684); assay: Inhibition of human ABL2 at 1 uM using EAIYAAPFAKKK as substrate in presence of [gamma33P]-ATP by HotSpot assay relative to control
[8] = target: Serine/threonine-protein kinase WNK3 (Homo sapiens) (UniProt Q9BYP7); assay: Inhibition of human WNK3 at 1 uM using MBP as substrate in presence of [gamma33P]-ATP by HotSpot assay relative to control
[9] = target: Cyclin-dependent kinase 5/CDK5 activator 1 (Homo sapiens) (UniProt Q00535+Q15078); assay: Inhibition of human CDK5/p35 at 1 uM using RB protein as substrate in presence of [gamma33P]-ATP by HotSpot assay relative to control; assay type: protein-complex assay
[10] = target: Mitogen-activated protein kinase 11 (Homo sapiens) (UniProt Q15759); assay: Inhibition of human MAPK11 at 1 uM using MBP as substrate in presence of [gamma33P]-ATP by HotSpot assay relative to control
Mus musculus = assay: In vivo inhibition of ALK signaling in SCID Beige mouse xenografted with ALK positive human KARPAS-299 cells assessed as reduction in phosphorylated ERK1/2 level at 10 to 50 mg/kg, po administered as single dose and measured at 6 to 24 hrs by immunoblot analysis; assay type: functional, organism-based; conditions: dose 10-50 mg/kg, time 6-24 hrs
KARPAS-299 = conditions: time 72 hrs
[11] = target: Cyclin-dependent kinase 1/cyclin B1 (Homo sapiens) (UniProt P06493+P14635); assay: Inhibition of human CDK1/CyclinB at 1 uM using RB protein as substrate in presence of [gamma33P]-ATP by HotSpot assay relative to control; assay type: protein-complex assay
Insulin receptor = Insulin receptor (Homo sapiens, UniProt P06213)
Description: Inhibition of INSR phosphorylation in insulin-stimulated human H4-II-E cells preincubated with compound for 30 mins followed by insulin stimulation and measured after 10 mins by immunoblot analysis

[12] = Average plasma concentration in CB-17/SCID mouse implanted with mouse BaF3 cells expressing EML4-ALK G1202R mutant at 50 mg/kg, po administered once daily for 7 days by LC-MS/MS analysis; assay type: ADME, organism-based; conditions: in vivo, 168 h, time 7 day
[13] = tested on: EML4-ALK (Homo sapiens), Q9UM73+Q9HC35 [F1174I]; conditions: BaF3, dose 200.0 nmol/L, time 3-5 weeks

Cyclin-dependent kinase 1/cyclin B1 (Homo sapiens), sequence (P06493 whole entry, looked up): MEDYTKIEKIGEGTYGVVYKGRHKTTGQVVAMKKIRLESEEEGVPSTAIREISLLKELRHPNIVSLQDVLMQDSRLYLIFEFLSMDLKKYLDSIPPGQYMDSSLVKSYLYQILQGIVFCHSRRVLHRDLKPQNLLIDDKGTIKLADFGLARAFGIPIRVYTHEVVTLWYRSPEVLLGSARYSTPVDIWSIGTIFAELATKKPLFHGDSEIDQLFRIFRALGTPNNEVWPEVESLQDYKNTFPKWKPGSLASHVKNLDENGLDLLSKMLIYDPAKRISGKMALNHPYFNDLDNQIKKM
Cyclin-dependent kinase 1/cyclin B1 (Homo sapiens), sequence (P14635 whole entry, looked up): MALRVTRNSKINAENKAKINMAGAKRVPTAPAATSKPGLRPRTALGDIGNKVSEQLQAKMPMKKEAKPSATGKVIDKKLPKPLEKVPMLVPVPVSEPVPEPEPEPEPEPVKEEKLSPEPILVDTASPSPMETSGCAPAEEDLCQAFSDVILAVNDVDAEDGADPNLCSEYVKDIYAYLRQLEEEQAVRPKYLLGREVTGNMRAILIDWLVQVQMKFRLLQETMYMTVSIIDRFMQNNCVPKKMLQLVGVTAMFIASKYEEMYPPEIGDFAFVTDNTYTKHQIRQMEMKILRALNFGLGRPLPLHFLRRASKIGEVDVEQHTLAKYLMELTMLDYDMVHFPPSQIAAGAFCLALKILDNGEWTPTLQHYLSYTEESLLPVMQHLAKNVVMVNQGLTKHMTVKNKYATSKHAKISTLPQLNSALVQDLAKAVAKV
Tyrosine-protein kinase TXK (Homo sapiens), sequence (P42681 whole entry): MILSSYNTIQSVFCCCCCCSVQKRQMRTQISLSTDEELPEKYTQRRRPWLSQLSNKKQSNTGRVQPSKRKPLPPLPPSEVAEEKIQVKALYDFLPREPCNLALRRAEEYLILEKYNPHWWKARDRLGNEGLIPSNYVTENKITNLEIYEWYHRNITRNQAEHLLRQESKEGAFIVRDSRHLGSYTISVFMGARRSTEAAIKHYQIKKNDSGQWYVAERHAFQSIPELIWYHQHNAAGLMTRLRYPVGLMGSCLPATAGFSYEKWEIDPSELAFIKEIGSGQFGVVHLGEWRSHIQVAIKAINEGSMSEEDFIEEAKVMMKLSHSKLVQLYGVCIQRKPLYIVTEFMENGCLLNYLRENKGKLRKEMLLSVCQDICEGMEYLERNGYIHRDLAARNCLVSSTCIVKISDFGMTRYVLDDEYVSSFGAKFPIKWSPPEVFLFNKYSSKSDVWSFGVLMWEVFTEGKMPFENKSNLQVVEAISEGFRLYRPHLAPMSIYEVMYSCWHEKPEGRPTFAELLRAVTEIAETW
Insulin receptor, sequence (P06213 28-758 limits assumed): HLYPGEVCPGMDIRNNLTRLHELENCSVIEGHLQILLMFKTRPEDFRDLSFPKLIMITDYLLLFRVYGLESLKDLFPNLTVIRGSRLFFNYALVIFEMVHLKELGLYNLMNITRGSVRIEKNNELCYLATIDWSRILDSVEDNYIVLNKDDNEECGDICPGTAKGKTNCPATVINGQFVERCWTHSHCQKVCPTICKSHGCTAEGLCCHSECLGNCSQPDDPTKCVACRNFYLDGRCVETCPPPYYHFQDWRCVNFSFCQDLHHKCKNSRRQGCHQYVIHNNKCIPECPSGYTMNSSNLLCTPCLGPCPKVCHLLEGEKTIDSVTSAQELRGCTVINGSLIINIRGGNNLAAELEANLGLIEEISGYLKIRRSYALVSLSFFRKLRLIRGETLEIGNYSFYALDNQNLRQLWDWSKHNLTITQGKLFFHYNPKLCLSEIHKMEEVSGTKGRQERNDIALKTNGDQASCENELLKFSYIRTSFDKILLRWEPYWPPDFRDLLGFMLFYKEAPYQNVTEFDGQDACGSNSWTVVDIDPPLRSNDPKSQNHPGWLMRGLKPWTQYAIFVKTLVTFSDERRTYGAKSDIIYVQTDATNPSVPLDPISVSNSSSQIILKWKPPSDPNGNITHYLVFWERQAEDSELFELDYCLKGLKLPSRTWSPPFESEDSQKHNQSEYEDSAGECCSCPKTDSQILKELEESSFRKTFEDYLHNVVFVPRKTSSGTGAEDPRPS
Insulin receptor, sequence (P06213 763-1382 limits assumed): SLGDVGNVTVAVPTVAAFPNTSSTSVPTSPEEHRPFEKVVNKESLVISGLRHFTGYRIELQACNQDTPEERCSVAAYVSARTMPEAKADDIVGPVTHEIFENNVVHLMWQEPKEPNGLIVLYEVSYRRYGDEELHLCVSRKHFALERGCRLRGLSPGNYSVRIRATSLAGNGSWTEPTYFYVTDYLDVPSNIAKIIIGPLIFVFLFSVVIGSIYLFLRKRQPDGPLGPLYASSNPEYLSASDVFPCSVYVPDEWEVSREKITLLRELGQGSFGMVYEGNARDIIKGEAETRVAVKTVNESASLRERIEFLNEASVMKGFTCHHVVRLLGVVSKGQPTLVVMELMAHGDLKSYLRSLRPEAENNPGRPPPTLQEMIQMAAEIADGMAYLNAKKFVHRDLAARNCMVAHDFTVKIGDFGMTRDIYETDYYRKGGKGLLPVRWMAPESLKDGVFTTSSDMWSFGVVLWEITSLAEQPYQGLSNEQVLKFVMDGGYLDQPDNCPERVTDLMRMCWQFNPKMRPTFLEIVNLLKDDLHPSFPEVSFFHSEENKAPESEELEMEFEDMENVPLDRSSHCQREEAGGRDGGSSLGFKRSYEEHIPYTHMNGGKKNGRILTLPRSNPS
PAS domain-containing serine/threonine-protein kinase (Homo sapiens), sequence (Q96RG2 whole entry, the tested form may be a part): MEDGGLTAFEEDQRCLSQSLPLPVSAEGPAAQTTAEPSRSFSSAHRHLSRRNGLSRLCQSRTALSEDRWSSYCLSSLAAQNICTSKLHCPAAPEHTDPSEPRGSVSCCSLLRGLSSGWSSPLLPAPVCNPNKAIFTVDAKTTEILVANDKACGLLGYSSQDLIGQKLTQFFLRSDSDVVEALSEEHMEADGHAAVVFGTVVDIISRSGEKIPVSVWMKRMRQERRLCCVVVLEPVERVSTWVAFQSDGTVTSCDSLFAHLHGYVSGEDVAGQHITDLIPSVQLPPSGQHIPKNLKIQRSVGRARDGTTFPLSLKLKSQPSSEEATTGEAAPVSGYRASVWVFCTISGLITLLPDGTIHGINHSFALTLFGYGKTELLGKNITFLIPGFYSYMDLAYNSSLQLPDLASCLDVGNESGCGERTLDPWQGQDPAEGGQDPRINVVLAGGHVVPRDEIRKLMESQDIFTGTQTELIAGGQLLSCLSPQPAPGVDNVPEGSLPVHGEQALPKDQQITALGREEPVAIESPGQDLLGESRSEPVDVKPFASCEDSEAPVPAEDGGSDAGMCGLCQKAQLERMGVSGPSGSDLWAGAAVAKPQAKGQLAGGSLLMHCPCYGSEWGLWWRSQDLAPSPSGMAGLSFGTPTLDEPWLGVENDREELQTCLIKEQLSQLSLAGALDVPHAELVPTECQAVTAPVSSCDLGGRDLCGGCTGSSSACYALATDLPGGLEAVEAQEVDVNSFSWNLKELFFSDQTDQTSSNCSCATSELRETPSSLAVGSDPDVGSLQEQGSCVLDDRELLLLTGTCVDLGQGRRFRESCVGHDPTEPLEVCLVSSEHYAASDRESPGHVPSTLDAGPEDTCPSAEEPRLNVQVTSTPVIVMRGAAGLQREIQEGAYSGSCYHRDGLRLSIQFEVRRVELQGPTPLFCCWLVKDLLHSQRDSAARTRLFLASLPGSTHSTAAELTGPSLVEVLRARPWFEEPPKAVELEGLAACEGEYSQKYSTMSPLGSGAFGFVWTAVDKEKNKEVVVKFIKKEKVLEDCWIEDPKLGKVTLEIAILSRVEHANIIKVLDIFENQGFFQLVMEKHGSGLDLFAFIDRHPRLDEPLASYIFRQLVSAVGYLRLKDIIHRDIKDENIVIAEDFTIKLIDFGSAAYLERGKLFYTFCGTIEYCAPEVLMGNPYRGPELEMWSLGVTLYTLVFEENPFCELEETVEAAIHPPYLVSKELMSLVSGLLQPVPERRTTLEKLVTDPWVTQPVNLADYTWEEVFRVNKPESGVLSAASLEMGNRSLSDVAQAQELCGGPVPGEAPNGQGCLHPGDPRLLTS
Mitogen-activated protein kinase 11 (Homo sapiens), sequence (Q15759 whole entry): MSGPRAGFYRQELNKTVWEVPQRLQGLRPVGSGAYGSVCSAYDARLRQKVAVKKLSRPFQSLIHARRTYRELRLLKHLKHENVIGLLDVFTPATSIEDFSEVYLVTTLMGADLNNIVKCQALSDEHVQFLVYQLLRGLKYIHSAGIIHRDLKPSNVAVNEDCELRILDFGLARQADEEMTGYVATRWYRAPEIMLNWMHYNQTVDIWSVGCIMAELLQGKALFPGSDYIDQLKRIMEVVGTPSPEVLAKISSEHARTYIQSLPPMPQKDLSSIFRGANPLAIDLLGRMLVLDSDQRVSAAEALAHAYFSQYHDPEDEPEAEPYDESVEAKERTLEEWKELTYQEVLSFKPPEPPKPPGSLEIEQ
Tyrosine-protein kinase Lck, sequence (P06239 whole entry): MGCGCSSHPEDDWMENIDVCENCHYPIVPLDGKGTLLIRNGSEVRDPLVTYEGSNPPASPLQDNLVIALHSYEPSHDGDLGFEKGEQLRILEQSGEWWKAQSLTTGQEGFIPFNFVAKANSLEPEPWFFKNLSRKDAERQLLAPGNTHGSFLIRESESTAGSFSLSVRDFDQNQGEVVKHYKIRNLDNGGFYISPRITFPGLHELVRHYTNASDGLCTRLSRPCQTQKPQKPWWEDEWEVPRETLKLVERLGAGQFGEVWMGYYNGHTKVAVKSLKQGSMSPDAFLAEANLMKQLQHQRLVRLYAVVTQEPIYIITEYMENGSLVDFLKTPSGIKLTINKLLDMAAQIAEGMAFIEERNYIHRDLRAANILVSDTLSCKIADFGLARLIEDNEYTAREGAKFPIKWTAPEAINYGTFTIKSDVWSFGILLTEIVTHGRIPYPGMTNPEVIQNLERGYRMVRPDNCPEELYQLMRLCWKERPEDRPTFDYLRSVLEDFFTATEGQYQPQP

In the case of `COc1cc(N2CCC(N3CCN(C)CC3)CC2)ccc1Nc1ncc(Cl)c(Nc2ccccc2P(C)(C)=O)n1` [BRIGATINIB], the inhibition [1] is reported as < 90%, the inhibition [2] is reported as “Active” and the IC50 (Ephrin type-A receptor 7) is reported as > 1000 nM. The inhibition [3] was < 90%, the IC50 [4] was 512 nM and the inhibition [5] was < 90%. For the same molecule, the inhibition [6] was < 90%, the inhibition [7] was < 90% and the inhibition [8] was < 90%. For the same molecule, the inhibition [9] was < 90%, the inhibition [10] was < 90% and the Activity (Mus musculus) was “Active”. For the same molecule, the GI50 (KARPAS-299) was 10 nM, the inhibition [11] was < 90% and the IC50 (Insulin receptor) was 9.33 µM. The Cave [12] was 5.151 µM and the inhibition [13] was “inactive”.
